Data: ChEMBL document CHEMBL1156551, “Chlorohydroaspyrones A and B, antibacterial aspyrone derivatives from the marine-derived fungus Exophiala sp” (2008)
Converted amounts (≈) assume the structure as drawn.

Columns and labels:
Type in all cases: functional
Staphylococcus aureus [1] = test: Antibacterial activity against Staphylococcus aureus after 18 hrs by conventional 2 fold serial dilution method
Staphylococcus aureus [2] = test: Antibacterial activity against methicillin-resistant Staphylococcus aureus after 18 hrs by conventional 2 fold serial dilution method
Staphylococcus aureus [3] = test: Antibacterial activity against multidrug-resistant Staphylococcus aureus after 18 hrs by conventional 2 fold serial dilution method

SMILES | MIC (Staphylococcus aureus [1]) [µg/mL] | MIC (Staphylococcus aureus [2]) [µg/mL] | MIC (Staphylococcus aureus [3]) [µg/mL]
C[C@H](O)[C@H](Cl)C1=C[C@H](O)[C@@H](C)OC1=O [CHLOROHYDROASPYRONE A] | 62.5 (≈ 283 µM) | 125 (≈ 567 µM) | 125 (≈ 567 µM)
C[C@H](Cl)[C@@H](O)C1=C[C@H](O)[C@@H](C)OC1=O [CHLOROHYDROASPYRONE B] | 62.5 (≈ 283 µM) | 62.5 (≈ 283 µM) | 125 (≈ 567 µM)
